Results taken from patent US20240391931A1 (Bristol-Myers Squibb Company, priority 2021, published 2024).

How the values were obtained:
[1] = target: T1, HER2 (Homo sapiens, UniProt P04626); assay: HER2 occupancy assay in BT474 cells; format: cell-based; conditions: concentration at which 50% of HER2 is irreversible bound, read-out: BT474 HER2 Occ
T1 construct: BT474 and N87 cell lines which endogenously overexpress the HER2 wildtype (WT) protein; endogenous in cells; host or cells: BT474, N87
Experimental: In order to assess free HER2 protein, a biotinylated probe was utilized. BT474, N87, and Ba/F3-HER2YVMA cells were treated with test compound as described for HER2 signaling. After compound treatment, cells were washed three times with cold phosphate buffer saline (PBS, Life Technologies, Carlsbad, CA), and lysed in modified occupancy lysis buffer prepared with an irreversible biotinylated tool compound (1 μM) in 25 mM Tris pH 7.5, 150 mM NaCl, 1% Triton, and supplemented with cOmplete, EDTA-free Protease inhibitor cocktail (Roche), Phosphatase Inhibitor Cocktails 2 and 3 (Sigma-Aldrich), and 1 mM PMSF (Sigma-Aldrich).
To determine % occupancy, lysates were loaded into duplicate plates of the phospho (Tyr1248)/total ErbB2 whole cell lysate MSD kit (Meso-Scale Discovery) and incubated overnight. Plates were washed and incubation with either HER2-sulfoTag (1:50, Meso Scale Discovery) or Strep-Sulfo Tag (1:1000, Meso Scale Discovery), for detection of […]. A standard curve of untreated cells in serial dilution was included in each plate to independently fit streptavidin (Free HER2) and total HER2 MSD signals; non-specific signal (BSA control spots) was subtracted from each well. Free HER2 was then normalized by total HER2 for each sample. The results are reported as % DMSO control. The normalized data was fitted using a sigmoidal curve analysis program (Graph Pad Prism version 6) with variable Hill slope to determine EC50 values. The results are provided in Table 4, under columns titled “BT474-HER2 Occ”, “N87-HER2 Occ”, and “Ba/F3 YVMA-HER2 Occ”. HER2 Occ is the concentration of test compound at which 50% of HER2 is irreversible bound.

[2] = target: HER2YVMA (Homo sapiens, UniProt P04626, INS775YVMA); assay: HER2 signaling (pHER2) in BEAS2B-HER2YVMA cells; format: cell-based; parameters: expressed in transfected cells; host or cells: HEK293 (pool), Ba/F3 (clones), BEAS2B (clones); lentiviral vector pCDH-CMV-MCS-EF1-Neo; conditions: read-out: BEAS2B YVMA pHER2 EC50
Experimental: Cell culture, plasmid cloning, and lentiviral transduction were carried out according to standard procedures. The Human HER2 cDNA construct in pCMV6-Entry for the HER2 wildtype (WT) expression was obtained from Origene. The HER2 cDNA including the 12-nucleotide insertion corresponding to YVMA insertion (HER2YVMA) was codon optimized, synthesized and cloned by GenScript (Piscataway, NJ) in pcDNA3.1. The lentiviral constructs expressing HER2YVMA and HER2 WT were sub-cloned using PCR at System Biosciences (SBI, Mountainview, CA) into lentiviral vectors pCDH-CMV-MCS-EF1-Neo and lentiviral particles were generated.
Engineered lines expressing HER2YVMA and HER2 WT were prepared in HEK293 (human embryonic kidney cells), Ba/F3 (Interleukin 3 (IL3)-dependent murine pro B cell line), and BEAS2B (primary immortalized human bronchial epithelial cell line). […]
HER2 signaling was assessed in BT474 and N87 cell lines which endogenously overexpress the HER2 wildtype (WT) protein, in NCI-H1781 cells which endogenously expresses a HER2 mutant protein containing a VC insertion in the kinase domain (HER2VC or G776delinsVC), and in engineered cell lines transduced to express the Her2 mutant protein containing the YVMA insertion (Hek293-HER2YVMA and BEAS2B-HER2YVMA). […]
HER2 signaling was evaluated using phospho (Tyr1248)/total ErbB2 whole cell lysate MSD plates (Meso-Scale Discovery, Gaithersburg, MD). […]

T1 sequence (P04626 23-1255): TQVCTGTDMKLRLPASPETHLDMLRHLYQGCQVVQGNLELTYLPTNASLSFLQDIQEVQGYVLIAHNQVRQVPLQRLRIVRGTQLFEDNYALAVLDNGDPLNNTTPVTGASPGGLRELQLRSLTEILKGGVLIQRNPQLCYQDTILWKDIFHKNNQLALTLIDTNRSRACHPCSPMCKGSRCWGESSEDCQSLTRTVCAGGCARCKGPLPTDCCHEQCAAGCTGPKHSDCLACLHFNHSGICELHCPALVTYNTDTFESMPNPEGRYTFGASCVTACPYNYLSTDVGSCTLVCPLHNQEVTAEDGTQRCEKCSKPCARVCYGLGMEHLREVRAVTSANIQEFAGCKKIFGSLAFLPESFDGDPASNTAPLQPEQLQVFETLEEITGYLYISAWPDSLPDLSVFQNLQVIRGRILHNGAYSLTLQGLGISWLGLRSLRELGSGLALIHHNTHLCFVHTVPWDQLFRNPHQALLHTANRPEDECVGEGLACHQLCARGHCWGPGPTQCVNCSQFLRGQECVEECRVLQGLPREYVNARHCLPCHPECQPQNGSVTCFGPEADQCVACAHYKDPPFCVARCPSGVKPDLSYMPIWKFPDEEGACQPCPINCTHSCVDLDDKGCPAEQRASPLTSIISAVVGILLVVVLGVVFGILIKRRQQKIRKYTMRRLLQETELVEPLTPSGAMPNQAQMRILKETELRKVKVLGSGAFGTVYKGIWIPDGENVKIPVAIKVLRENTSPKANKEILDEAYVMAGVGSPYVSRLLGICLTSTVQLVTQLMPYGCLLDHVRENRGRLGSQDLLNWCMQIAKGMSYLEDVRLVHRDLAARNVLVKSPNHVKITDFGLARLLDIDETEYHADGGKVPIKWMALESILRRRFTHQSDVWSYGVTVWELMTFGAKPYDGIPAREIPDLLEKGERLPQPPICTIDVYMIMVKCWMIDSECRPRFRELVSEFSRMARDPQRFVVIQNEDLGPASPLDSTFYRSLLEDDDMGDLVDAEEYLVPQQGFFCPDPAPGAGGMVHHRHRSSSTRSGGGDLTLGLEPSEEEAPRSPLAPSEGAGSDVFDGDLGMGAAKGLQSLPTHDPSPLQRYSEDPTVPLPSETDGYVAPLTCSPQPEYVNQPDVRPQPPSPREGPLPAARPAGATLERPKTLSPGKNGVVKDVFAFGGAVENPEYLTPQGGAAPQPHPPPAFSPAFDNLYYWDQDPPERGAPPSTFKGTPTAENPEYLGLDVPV
Chain of HER2YVMA (P04626 with tags, fused parts or gaps INS775YVMA): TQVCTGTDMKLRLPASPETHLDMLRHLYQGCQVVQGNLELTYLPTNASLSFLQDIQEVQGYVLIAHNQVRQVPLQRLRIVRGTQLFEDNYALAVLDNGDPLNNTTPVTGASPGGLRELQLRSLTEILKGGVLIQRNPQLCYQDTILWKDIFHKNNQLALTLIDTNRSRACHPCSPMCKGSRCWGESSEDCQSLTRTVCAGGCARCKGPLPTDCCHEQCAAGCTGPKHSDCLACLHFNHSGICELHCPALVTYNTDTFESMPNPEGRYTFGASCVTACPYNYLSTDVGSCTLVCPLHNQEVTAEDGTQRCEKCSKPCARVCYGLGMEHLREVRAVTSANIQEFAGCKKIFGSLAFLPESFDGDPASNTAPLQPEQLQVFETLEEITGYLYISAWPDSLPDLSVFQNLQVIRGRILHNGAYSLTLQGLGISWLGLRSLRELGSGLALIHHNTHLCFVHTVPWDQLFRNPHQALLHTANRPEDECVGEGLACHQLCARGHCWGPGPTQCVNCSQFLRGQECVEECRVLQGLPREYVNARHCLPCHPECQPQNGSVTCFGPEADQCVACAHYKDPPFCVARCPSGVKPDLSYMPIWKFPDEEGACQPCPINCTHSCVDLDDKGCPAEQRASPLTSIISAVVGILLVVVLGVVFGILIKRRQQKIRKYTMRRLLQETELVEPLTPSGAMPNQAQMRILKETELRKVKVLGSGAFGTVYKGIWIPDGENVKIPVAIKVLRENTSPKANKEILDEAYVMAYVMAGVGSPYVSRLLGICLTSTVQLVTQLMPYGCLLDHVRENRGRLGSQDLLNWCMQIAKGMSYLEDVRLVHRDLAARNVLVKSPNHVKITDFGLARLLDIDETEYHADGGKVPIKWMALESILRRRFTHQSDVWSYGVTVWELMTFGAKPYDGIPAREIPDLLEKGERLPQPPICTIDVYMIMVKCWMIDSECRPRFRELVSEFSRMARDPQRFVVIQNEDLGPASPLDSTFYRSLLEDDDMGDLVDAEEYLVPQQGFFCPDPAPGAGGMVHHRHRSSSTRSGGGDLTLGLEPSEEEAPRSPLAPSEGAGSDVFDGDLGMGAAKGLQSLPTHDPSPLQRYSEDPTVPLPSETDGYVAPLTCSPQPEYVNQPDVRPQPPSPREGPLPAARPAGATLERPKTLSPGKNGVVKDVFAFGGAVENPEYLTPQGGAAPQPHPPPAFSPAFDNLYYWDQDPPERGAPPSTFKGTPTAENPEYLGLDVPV

EC50 [1] [nM]	EC50 [2] [nM]	SMILES
< 100		CN(C)C/C=C/C(=O)N1CCc2c(sc3ncnc(Nc4ccc(Oc5ccc6ncnn6c5)c(Cl)c4)c23)C1 [Compound 5, (E)-1-(4-((4-([1,2,4]triazolo[1,5-a]pyridin-6-yloxy)-3-chlorophenyl)amino)-5,8-dihydropyrido[4′,3′:4,5]thieno[2,3-d]pyrimidin-7(6H)-yl)-4-(dimethylamino)but-2-en-1-one]
	< 100	COc1ccc(Oc2ccc(Nc3ncnc4sc5c(c34)CCN(C(=O)/C=C/CN(C)C)C5)cc2C)cn1 [Compound 95, (E)-4-(Dimethylamino)-1-(4-((4-((6-methoxypyridin-3-yl)oxy)-3-methylphenyl)amino)-5,6-dihydropyrido[4′,3′:4,5]thieno[2,3-d]pyrimidin-7(8H)-yl)but-2-en-1-one]
